Assay [1] relates to KMS11 (human myeloma cell line). In words: Cell proliferation assay (CellTiter-Glo), KMS11. The format is cell-based. The settings on record: Homo sapiens, KMS-11. The essentials: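 KMS11 cells in IMDM with 10% FBS and sodium pyruvate, seeded at 2000 cells/well on assay day. Compound added at 2× to equal volume of cells, incubated 3 days at 37° C. Viability read by CellTiter-Glo luminescence; EC50 derived.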

The target in the next assay is GSK3β (Homo sapiens, UniProt P49841). In words: GSK3β ATP depletion assay. Type of assay: biochemical. The settings on record: read-out: GSK3b IC50. Put shortly:
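Human GSK3β (5 nM) preincubated 15 min with 10 μM biotinylated phospho-CREB peptide in pH 7.5 Tris buffer (15 mM MgCl2, 1 mM DTT, 0.1% BSA, 2.5% DMSO). Reaction started with 2 μM ATP and run to about 50% ATP depletion. Remaining ATP measured by KinaseGlo luminescence.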

In the next assay the target is PDGFRaV561D kinase (Homo sapiens, UniProt P16234, V561D). In words: PDGFRaV561D kinase inhibition assay (LanthaScreen TR-FRET). The format is biochemical. To be noted: read-out: PDGFRa IC50. As for the experimental part: PDGFRaV561D Kinase Inhibition Assay
Sequence of PDGFRaV561D kinase (P16234 24-1089 V561D): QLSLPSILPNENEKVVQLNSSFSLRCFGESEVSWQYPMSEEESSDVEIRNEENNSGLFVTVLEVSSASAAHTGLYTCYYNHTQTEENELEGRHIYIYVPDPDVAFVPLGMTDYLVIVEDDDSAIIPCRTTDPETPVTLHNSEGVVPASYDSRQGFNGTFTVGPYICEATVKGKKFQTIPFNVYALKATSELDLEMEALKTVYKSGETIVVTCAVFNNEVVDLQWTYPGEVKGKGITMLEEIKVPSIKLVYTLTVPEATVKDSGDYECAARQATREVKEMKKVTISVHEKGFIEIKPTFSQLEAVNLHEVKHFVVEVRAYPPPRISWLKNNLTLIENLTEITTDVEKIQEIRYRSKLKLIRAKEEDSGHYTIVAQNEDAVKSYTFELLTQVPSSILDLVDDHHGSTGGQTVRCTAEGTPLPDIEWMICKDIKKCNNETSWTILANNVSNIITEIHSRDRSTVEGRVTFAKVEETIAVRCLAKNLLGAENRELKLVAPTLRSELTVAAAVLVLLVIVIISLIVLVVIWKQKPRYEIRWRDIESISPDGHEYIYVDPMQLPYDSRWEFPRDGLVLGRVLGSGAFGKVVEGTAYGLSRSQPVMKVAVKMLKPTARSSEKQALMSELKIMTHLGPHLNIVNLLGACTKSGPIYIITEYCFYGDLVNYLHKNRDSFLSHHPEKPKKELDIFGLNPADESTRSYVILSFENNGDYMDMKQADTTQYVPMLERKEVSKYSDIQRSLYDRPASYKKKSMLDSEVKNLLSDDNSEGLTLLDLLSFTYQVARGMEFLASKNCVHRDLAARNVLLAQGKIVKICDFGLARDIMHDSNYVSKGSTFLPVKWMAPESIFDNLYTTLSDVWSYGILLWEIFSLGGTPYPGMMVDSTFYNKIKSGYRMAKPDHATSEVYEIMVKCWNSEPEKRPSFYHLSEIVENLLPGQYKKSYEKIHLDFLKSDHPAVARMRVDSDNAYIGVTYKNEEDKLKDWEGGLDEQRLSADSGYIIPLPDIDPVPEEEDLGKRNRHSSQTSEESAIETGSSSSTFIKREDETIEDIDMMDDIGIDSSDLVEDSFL
LanthaScreen™ is the detection of Time-Resolved Fluorescence Resonance Energy Transfer (TR-FRET) using lanthanide chelates to measure interactions between various binding partners. The application of TR-FRET to assay kinase activity was first described by Mathis (1995). A TR-FRET assay was used to measure PDGFRaV561D kinase inhibitory activity. The assay panel was run on a Biomek FX liquid handling workstations. To the assay plates containing […] compound or control solutions, 4.5 μL of buffer A (50 mM TRIS-HCl pH 7.4, 2 mM DTT, 0.02% Tween 20, 0.02 mM Na3VO4, H2O nanpure) including a generic concentration of ATP (2 μM f.c.) was added per well, followed by […] of buffer B (4 uM ATP in Buffer A) including a generic concentration of polyEAY (50 nM f.c.), PDGFRaV561D kinase, and divalent cations. Final concentration of kinase and cations were: [PDGFRaV561D kinase]=4.4 nM, [Mn]=10 mM. After 1 hour of incubation the kinase reactions were stopped by the addition of 4.5 μL of stop solution D (50 mM EDTA, 20 mM TRIS-HCl pH 7.4, 0.04% NP-40) immediately followed by 4.5 μL of buffer A (50 mM TRIS-HCl pH 7.4, 2 mM DTT, 0.02% Tween 20, 0.02 mM Na3VO4, H2O nanpure) including the Tb-labeled P-20 antibody to give a total detection volume of […]. After an incubation time of 45 min in the dark, the plates were transferred into the Pherastar fluorescence reader for counting. The effect of compound on the enzymatic activity was obtained from the linear progress curves and determined from one reading (end point measurement).
Background: TR-FRET usually uses a lanthanide donor and a delayed reading to cut background.

Another assay has as its target PKCα (Homo sapiens, UniProt P17252). In words: PKCα kinase Caliper assay. The format is biochemical. On the procedure: PKCα and cABLT315 Kinase Caliper Assays
Assays were performed in 384 well microtiter plates. Each assay plate contained 8-point serial dilutions for test compounds, as well as two 16-point serial dilutions of staurosporine as reference compound, plus 16 high- and 16 low controls. Liquid handling and incubation steps were done on a Thermo CatX workstation equipped with a Innovadyne Nanodrop Express. Between pipetting steps, tips were cleaned in wash cycles using wash buffer. Plates with terminated kinase reactions were transferred to the Caliper LC3000 workstations for reading. Phosphorylated and unphosphorylated peptides were separated using the Caliper microfluidic mobilitishift technology and Kinase activities were calculated from the amounts of formed phospho-peptide.
1. 0.05 μA Compound (start with 1.8 mM in 90% DMSO/10% H2O)
2. +4.5 μl 2× peptide/ATP solution
3. +4.5 μl 2× enzyme solution
4. Incubate for 60 min at 30° C.
4. +16 μl stop/run buffer
Independent of the kinase, all reactions were done performed in 50 mM HEPES, pH 7.5, 1 mM DTT, 0.02% Tween20, 0.02% BSA, and 0.6% DMSO.

[2] abbreviates: KMS11 cells, cell proliferation, read-out: KMS11-Luc EC50.
[3] abbreviates: PKCα Caliper assay, read-out: PKC IC50.

Among the data in patent US20130109682A1, “CYCLIC ETHER COMPOUNDS USEFUL AS KINASE INHIBITORS” (NOVARTIS AG, priority 2010, published 2013) are EC50 and IC50 values, retold here.

SMILES strings stand for the structures. Read-outs that look alike come from different tables or passages of the source. Where only a bound is given, the exact number is not on record here.

Sequence of GSK3β (P49841 whole entry, species assumed): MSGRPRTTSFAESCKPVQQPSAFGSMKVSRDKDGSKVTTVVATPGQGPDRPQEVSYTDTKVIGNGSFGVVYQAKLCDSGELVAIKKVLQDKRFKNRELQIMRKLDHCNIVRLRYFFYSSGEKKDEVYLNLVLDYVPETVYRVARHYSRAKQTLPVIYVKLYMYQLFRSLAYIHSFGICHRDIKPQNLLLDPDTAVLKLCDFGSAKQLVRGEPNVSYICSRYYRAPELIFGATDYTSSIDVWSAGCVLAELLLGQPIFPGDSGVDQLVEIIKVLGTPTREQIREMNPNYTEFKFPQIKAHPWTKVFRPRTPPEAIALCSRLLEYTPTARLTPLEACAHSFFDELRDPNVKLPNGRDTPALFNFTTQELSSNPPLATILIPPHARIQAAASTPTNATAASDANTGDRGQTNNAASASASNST

Consider `Nc1ncc(-c2ccccc2)nc1C(=O)Nc1cnccc1[C@H]1C[C@@H](N)[C@H](O)[C@@H](C2CC2)O1` [Example 346, 3-amino-N-(4-((2R,4R,5S,6R)-4-amino-6-cyclopropyl-5-hydroxytetrahydro-2H-pyran-2-yl)pyridin-3-yl)-6-phenylpyrazine-2-carboxamide], for which the EC50 (usually the concentration giving half of the maximal effect) in assay [1] (setting [2]) came to 470 nM. Besides, the half-inhibitory concentration (IC50) (usually the concentration that inhibits the measured activity by half) at GSK3β (ATP depletion assay) was found to be 9.2 nM; at PDGFRaV561D kinase it was 72 nM; on PKCα (setting [3]), 60 nM.
On to `Nc1ncc(-c2ccccc2)nc1C(=O)Nc1cnccc1[C@H]1C[C@@H](O)[C@H](O)[C@@H](CO)O1` [Example 341, 3-amino-N-(4-((2R,4R,5S,6R)-4,5-dihydroxy-6-(hydroxymethyl)tetrahydro-2H-pyran-2-yl)pyridin-3-yl)-6-phenylpyrazine-2-carboxamide], for which the EC50 in assay [1] (setting [2]) was determined as 10000 nM. The IC50 on GSK3β (ATP depletion assay) came out at 3 nM; on PDGFRaV561D kinase, 880 nM; on PKCα (setting [3]) it was 650 nM.
As to `Nc1ncc(-c2ccccc2)nc1C(=O)Nc1cnccc1[C@@H]1C[C@H](N)[C@]2(O)CCC[C@@H]2O1` [Example 185, 3-amino-N-(4-((2S,4S,4aR,7aS)-4-amino-4a-hydroxyoctahydrocyclopenta[b]pyran-2-yl)pyridin-3-yl)-6-phenylpyrazine-2-carboxamide], in assay [1] (setting [2]), the EC50 was determined as 9390 nM. The results for the IC50 at GSK3β (ATP depletion assay), on PDGFRaV561D kinase and on PKCα (setting [3]) were 670 nM, 4100 nM and 650 nM, respectively.
The like results for `Nc1ncc(-c2ccccc2)nc1C(=O)Nc1cnccc1[C@@H]1C[C@H](N)[C@@H](O)[C@H](C2CC2)O1` [Example 349, 3-amino-N-(4-((2S,4S,5R,6S)-4-amino-6-cyclopropyl-5-hydroxytetrahydro-2H-pyran-2-yl)pyridin-3-yl)-6-phenylpyrazine-2-carboxamide] were, in that order, 540 nM, 100 nM, 3300 nM and 140 nM.
For the compound `CC[C@H]1O[C@@H](c2ccncc2NC(=O)c2nc(-c3ccccc3)cnc2N)C[C@@H](N)[C@@H]1O` [Example 343, 3-amino-N-(4-((2R,4R,5S,6R)-4-amino-6-ethyl-5-hydroxytetrahydro-2H-pyran-2-yl)pyridin-3-yl)-6-phenylpyrazine-2-carboxamide], the EC50 in assay [1] (setting [2]) was 150 nM. In addition, the IC50 came to 12 nM on GSK3β (ATP depletion assay), 12 nM at PDGFRaV561D kinase and 23 nM at PKCα (setting [3]).
On to `Nc1ncc(-c2ccccc2)nc1C(=O)Nc1cnccc1[C@@H]1C[C@H](O)[C@]2(O)CCCC[C@@H]2O1` [Example 176, 3-amino-N-(4-((2S,4S,4aR,8aS)-4,4a-dihydroxyoctahydro-2H-chromen-2-yl)pyridin-3-yl)-6-phenylpyrazine-2-carboxamide], for which the midpoint of the response in assay [1] (KMS11-Luc cells), the EC50, lay at 3600 nM. Besides, the IC50 at GSK3β is 48.5 nM; at PDGFRaV561D kinase, 8000 nM; at PKCα (read-out: PKC IC50) it was 2600 nM.
For the compound `Nc1ncc(-c2ccccc2)nc1C(=O)Nc1cnccc1[C@H]1C[C@@H](N)[C@@]2(O)CCCC[C@H]2O1` [Example 197, 3-amino-N-(4-((2R,4R,4aS,8aR)-4-amino-4a-hydroxyoctahydro-2H-chromen-2-yl)pyridin-3-yl)-6-phenylpyrazine-2-carboxamide], the EC50 in assay [1] (setting [2]) worked out at 70 nM. For the same compound, the half-maximal inhibitory concentration (IC50) was 8 nM at GSK3β (ATP depletion assay), 23 nM on PDGFRaV561D kinase and 41 nM on PKCα (setting [3]).
As to `Nc1cnc(-c2c(F)cccc2F)nc1C(=O)Nc1cnccc1[C@H]1C[C@@H](N)[C@@]2(O)CCC[C@H]2O1` [Example 213, 5-amino-N-(4-((2R,4R,4aS,7aR)-4-amino-4a-hydroxyoctahydrocyclopenta[b]pyran-2-yl)pyridin-3-yl)-2-(2,6-difluorophenyl)pyrimidine-4-carboxamide], the EC50 in assay [1] (KMS11-Luc cells) stood at 2800 nM. Besides, the results for the IC50 on GSK3β, on PDGFRaV561D kinase and at PKCα (read-out: PKC IC50) were 558 nM, 4000 nM and > 10000 nM, respectively.
For the compound `CCC[C@H]1O[C@@H](c2ccncc2NC(=O)c2nc(-c3ccccc3)cnc2N)C[C@@H](O)[C@@H]1O` [Example 340, 3-amino-N-(4-((2R,4R,5S,6R)-4,5-dihydroxy-6-propyltetrahydro-2H-pyran-2-yl)pyridin-3-yl)-6-phenylpyrazine-2-carboxamide], the EC50 in assay [1] (setting [2]) is 990 nM. Also, the values for the IC50 at GSK3β (ATP depletion assay), on PDGFRaV561D kinase and at PKCα (setting [3]) were 0.9 nM, 810 nM and 860 nM, respectively.
For `CC(C)[C@H]1C[C@@H](N)C[C@@H](c2ccncc2NC(=O)c2nc(-c3ccccc3)cnc2N)O1` [Example 292, 3-amino-N-(4-((2S,4R,6R)-4-amino-6-isopropyltetrahydro-2H-pyran-2-yl)pyridin-3-yl)-6-phenylpyrazine-2-carboxamide] the same measures were 700 nM, 44 nM, 4400 nM and 100 nM.
Regarding `CC[C@]1(O)[C@H](N)C[C@H](c2ccncc2NC(=O)c2nc(-c3ccccc3)cnc2N)O[C@@H]1C` [Example 187, 3-amino-N-(4-((2R,4R,5S,6R)-4-amino-5-ethyl-5-hydroxy-6-methyltetrahydro-2H-pyran-2-yl)pyridin-3-yl)-6-phenylpyrazine-2-carboxamide], the concentration for a half-maximal effect (EC50) in assay [1] (setting [2]) came out at 950 nM. Further, the IC50 at GSK3β (ATP depletion assay) turned out to be 3.3 nM; at PDGFRaV561D kinase, 25 nM; at PKCα (setting [3]) it was 50 nM.
With `CC(C)[C@H]1O[C@@H](c2ccncc2NC(=O)c2nc(-c3ccccc3)cnc2N)C[C@@H](N)[C@@H]1O` [Example 356, 3-amino-N-(4-((2R,4R,5S,6R)-4-amino-5-hydroxy-6-isopropyltetrahydro-2H-pyran-2-yl)pyridin-3-yl)-6-phenylpyrazine-2-carboxamide], the concentration for a half-maximal effect (EC50) in assay [1] (setting [2]) was 180 nM. The values for the IC50 at GSK3β (ATP depletion assay), at PDGFRaV561D kinase and at PKCα (setting [3]) were 8.6 nM, 53 nM and 75 nM, respectively.
The like results for `CC[C@]1(O)[C@H](C)O[C@H](c2ccncc2NC(=O)c2nc(-c3ccccc3)cnc2N)C[C@@H]1N` [Example 189, 3-amino-N-(4-((2S,4S,5R,6S)-4-amino-5-ethyl-5-hydroxy-6-methyltetrahydro-2H-pyran-2-yl)pyridin-3-yl)-6-phenylpyrazine-2-carboxamide] were, in that order, 8830 nM, 71 nM, 1700 nM and 710 nM.
With `Nc1ncc(-c2ccccc2)nc1C(=O)Nc1cnccc1[C@@H]1C[C@H](N)[C@]2(O)CCCC[C@@H]2O1` [Example 243, 3-amino-N-(4-((2S,4S,4aR,8aS)-4-amino-4a-hydroxyoctahydro-2H-chromen-2-yl)pyridin-3-yl)-6-phenylpyrazine-2-carboxamide], the IC50 turned out to be 870 nM at GSK3β (ATP depletion assay), 8300 nM on PDGFRaV561D kinase and 7200 nM on PKCα (setting [3]).
As to `Nc1cc(F)c(-c2c(F)cccc2F)nc1C(=O)Nc1cnccc1[C@H]1C[C@@H](N)[C@@]2(O)CCCC[C@H]2O1` [Example 238, 3-amino-N-(4-((2R,4R,4aS,8aR)-4-amino-4a-hydroxyoctahydro-2H-chromen-2-yl)pyridin-3-yl)-6-(2,6-difluorophenyl)-5-fluoropicolinamide], the figures for the 50% inhibitory concentration (IC50) at GSK3β (ATP depletion assay), on PDGFRaV561D kinase and against PKCα were 393 nM, 7500 nM and > 10000 nM, respectively.
For the compound `C[C@@]1(O)[C@H](N)C[C@@H](c2ccncc2NC(=O)c2nc(-c3ccccc3)cnc2N)OC12CC2` [Example 352, 3-amino-N-(4-((5S,7R,8R)-7-amino-8-hydroxy-8-methyl-4-oxaspiro[2.5]octan-5-yl)pyridin-3-yl)-6-phenylpyrazine-2-carboxamide], the IC50 at GSK3β (ATP depletion assay) came out at 5.3 nM; on PDGFRaV561D kinase, 41 nM; on PKCα (setting [3]), 55 nM.
